Test results published in publication PMC7073924, “2-Aminomethylene-5-sulfonylthiazole Inhibitors of Lysyl Oxidase (LOX) and LOXL2 Show Significant Efficacy in Delaying Tumor Growth” (Journal of Medicinal Chemistry, 2019).
Where “and” joins values, the source holds several entries; their conditions need not be identical. Identical values can stand only once. Counter-ions that a name gives are not always drawn.

Legend:
SSAO = target: T1, SSAO (Homo sapiens, UniProt Q16853); type: biochemical; conditions: Table 7
T1 construct: purchased Sigma
T1 sequence (Q16853 1-763): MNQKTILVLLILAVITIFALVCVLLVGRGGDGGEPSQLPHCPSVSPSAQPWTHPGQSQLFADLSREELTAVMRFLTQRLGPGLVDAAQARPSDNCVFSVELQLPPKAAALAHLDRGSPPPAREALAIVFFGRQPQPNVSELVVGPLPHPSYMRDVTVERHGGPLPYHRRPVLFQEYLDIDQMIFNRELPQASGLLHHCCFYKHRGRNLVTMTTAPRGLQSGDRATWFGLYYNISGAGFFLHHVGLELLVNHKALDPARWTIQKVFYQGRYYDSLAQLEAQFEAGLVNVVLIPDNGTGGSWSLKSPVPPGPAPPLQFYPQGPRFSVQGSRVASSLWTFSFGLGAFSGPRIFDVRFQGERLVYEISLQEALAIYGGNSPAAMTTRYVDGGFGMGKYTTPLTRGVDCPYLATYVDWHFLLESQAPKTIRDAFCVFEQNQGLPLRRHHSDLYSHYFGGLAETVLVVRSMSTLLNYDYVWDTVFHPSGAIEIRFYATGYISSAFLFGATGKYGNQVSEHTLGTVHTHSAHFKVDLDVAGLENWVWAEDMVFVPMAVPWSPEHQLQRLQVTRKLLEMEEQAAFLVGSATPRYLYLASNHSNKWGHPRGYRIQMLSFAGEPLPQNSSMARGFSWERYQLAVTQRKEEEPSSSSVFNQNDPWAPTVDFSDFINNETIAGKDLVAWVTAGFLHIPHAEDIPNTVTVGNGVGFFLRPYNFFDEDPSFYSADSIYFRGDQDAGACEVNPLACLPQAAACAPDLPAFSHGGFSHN
Experimental: (§1) All amine oxidase assays were performed with concentrations as above. MAO-A and MAO-B enzymes were purchased from Sigma. The catalytic activity of MAO-A and MAO-B was determined using the Promega MAO-Glo assay kit (substrate included), with clorgyline and deprenyl as reference inhibitor controls, respectively. DAO was purchased from Sigma, and the catalytic activity was determined using the Promega ROS-Glo assay kit, with aminoguanidine as the reference inhibitor control. SSAO was purchased from Sigma. SSAO catalytic activity was determined using the Promega MAO-Glo assay kit, with mofegiline as the reference inhibitor control.

MAO-A = target: T2, MAO-A (Homo sapiens, UniProt P21397); type: biochemical; conditions: Table 7
T2 construct: purchased Sigma
T2 sequence (P21397 1-527): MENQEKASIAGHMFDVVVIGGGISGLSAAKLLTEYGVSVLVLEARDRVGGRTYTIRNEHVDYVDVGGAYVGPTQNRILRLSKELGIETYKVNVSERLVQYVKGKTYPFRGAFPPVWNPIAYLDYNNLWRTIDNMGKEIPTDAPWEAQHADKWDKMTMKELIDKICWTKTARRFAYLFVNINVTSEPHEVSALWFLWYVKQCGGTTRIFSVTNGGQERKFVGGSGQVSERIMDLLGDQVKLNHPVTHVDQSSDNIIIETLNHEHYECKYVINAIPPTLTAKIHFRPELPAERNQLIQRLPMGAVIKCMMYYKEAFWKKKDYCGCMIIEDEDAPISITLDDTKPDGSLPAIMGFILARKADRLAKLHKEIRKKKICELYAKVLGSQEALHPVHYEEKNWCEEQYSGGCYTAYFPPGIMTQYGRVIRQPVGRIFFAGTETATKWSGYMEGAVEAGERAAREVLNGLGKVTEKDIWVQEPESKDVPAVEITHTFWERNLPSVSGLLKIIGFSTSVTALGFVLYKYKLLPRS
Experimental: as §1

In vivo PK, mouse = conditions: single po dose 50 mg/kg
Text: Female Balb/C or CD1 nude mice (Charles River Laboratories) at 6 weeks of age were used for the mouse PK analyses. […] Three mice were used per time-point per route; average values are reported. They were placed under halothane or isoflurane anesthesia, and blood for plasma preparation was taken by terminal cardiac puncture into heparinized syringes.

DAO = target: T3, DAO (Sus scrofa, UniProt Q9TRC7); type: biochemical; conditions: Table 7
T3 construct: purchased Sigma
T3 sequence (Q9TRC7 25-755): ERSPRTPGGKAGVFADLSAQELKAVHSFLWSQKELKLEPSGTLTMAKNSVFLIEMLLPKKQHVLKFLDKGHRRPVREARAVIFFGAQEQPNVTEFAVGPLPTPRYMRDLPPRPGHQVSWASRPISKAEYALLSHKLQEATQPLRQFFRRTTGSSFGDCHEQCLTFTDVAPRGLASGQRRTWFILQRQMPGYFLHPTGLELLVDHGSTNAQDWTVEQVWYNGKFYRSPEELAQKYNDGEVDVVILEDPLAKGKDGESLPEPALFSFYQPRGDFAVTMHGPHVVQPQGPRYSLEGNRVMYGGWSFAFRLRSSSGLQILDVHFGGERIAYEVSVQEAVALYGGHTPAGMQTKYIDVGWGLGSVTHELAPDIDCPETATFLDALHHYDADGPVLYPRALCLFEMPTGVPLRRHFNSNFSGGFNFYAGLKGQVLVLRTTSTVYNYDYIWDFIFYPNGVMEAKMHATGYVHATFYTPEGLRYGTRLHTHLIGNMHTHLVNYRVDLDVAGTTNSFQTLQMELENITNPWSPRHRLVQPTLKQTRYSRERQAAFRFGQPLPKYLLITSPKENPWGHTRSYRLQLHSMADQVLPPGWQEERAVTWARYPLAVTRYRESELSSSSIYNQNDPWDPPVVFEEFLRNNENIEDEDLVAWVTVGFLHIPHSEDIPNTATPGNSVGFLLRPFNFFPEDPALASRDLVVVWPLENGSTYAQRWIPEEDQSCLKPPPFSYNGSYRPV
Experimental: as §1

MLM stability assay = type: in vitro ADME; conditions: mouse liver microsomes; percentage of compound remaining after 30 min; 10 μM
Experimental: Mouse liver microsomes (CD1 female; M1500) and rat liver microsomes (Sprague Dawley female; R1500) were purchased from Tebu-bio, and the assay was performed by methods previously described.[21] Inhibitors at 10 μM concentration incubated with the microsomes were assessed at 0, 15, and 30 min. Control samples containing no microsomes and no cofactors were also assessed at 0 and 30 min. Samples were extracted by protein precipitation, and centrifugation for 20 min in a refrigerated centrifuge (4 °C) at 3700 rpm. The supernatant was analyzed by LC–MS/MS for % metabolized over time.

MAO-B = target: T4, MAO-B (Homo sapiens, UniProt P27338); type: biochemical; conditions: Table 7
T4 construct: purchased Sigma
T4 sequence (P27338 1-520): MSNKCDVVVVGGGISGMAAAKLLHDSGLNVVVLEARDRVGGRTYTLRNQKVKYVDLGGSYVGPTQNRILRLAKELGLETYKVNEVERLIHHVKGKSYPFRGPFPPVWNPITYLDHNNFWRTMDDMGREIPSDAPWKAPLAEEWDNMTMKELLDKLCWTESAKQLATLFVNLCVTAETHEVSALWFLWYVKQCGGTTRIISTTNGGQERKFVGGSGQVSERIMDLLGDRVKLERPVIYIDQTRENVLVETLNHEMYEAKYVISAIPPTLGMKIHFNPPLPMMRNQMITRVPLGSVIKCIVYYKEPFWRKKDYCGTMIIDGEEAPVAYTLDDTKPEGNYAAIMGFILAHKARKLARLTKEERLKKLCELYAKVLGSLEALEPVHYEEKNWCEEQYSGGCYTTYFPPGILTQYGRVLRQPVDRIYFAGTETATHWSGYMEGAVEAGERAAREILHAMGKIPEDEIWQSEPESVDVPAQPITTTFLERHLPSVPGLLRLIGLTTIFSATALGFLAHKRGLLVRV
Experimental: as §1

[1] = target: hERG human potassium ion channel (Homo sapiens, UniProt Q12809)
hERG human potassium ion channel, sequence (Q12809 whole entry): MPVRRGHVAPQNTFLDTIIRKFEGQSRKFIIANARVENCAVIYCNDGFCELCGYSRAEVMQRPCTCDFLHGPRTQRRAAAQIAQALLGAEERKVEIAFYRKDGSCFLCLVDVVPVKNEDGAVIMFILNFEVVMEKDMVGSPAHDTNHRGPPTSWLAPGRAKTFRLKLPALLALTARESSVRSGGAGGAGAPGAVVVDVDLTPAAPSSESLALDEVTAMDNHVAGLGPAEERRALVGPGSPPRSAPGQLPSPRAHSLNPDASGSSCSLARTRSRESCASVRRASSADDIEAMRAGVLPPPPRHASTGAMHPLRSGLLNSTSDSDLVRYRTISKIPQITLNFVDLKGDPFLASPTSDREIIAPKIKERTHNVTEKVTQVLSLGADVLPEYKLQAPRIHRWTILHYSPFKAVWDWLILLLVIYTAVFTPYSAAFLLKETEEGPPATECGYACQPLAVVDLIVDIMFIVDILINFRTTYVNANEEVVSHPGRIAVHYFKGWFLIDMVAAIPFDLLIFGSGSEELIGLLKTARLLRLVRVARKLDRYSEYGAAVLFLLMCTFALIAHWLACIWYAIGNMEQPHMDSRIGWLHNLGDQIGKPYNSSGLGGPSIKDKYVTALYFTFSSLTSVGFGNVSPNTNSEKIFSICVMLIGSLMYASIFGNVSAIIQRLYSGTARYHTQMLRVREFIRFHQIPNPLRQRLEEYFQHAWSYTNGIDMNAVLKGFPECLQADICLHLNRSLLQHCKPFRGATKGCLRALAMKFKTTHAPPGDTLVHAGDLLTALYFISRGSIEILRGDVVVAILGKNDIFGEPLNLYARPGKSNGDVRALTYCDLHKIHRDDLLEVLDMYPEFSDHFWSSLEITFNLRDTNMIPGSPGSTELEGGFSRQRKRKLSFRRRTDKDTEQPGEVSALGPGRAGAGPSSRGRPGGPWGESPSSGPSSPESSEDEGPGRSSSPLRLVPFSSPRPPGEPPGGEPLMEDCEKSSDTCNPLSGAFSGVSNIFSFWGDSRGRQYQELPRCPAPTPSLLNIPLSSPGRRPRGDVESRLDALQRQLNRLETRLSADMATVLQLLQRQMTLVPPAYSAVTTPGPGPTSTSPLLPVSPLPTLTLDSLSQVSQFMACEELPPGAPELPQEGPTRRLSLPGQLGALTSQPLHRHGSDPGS
Experimental: hERG inhibition was determined using the “hERG human potassium ion channel cell based antagonist Qpatch assay” by Eurofins Ltd. Cell permeability was determined using the “Caco-2 permeability assay” by Cyprotex Ltd.

Compound: Cn1cc(-c2cc(F)cc(S(=O)(=O)c3cnc(CN)s3)c2)cn1 [Compound 21e, (5-((3-Fluoro-5-(1-methyl-1H-pyrazol-4-yl)phenyl)sulfonyl)thiazol-2-yl)methanamine Hydrochloride]
- IC50 (SSAO): 36.3 µM and 40.3 µM
- IC50 (MAO-A): 61.7 µM and 66.8 µM
- AUC(PO) (In vivo PK, mouse; mouse plasma): 4.48 µM·h
- Cmax (In vivo PK, mouse; mouse plasma): 9.75 µM
- t1/2(PO) (In vivo PK, mouse; mouse): 2.0 h
- IC50 (DAO): 21.3 µM and 22.5 µM
- MLM stability (%) (MLM stability assay): 90%
- IC50 (MAO-B): > 100 µM
- IC50 [1]: 66 µM
